Measured values taken from PMC2497451 (Anesthesia and analgesia, 2008).
Like-named read-outs stand apart in the source and are kept apart here.

Assays:
[1] = molecular target: T1, adult human muscle nicotinic acetylcholine receptor (nAChR, α2βεδ) (Homo sapiens, UniProt P02708+Q04844+Q07001); assay: cell-based
[2] = molecular target: T1, adult human muscle nicotinic acetylcholine receptor (nAChR, α2βεδ); details: 300 μM ACh, -50 mV, pH 7.3, room temperature; competitive

T1 sequence (P02708 21-457): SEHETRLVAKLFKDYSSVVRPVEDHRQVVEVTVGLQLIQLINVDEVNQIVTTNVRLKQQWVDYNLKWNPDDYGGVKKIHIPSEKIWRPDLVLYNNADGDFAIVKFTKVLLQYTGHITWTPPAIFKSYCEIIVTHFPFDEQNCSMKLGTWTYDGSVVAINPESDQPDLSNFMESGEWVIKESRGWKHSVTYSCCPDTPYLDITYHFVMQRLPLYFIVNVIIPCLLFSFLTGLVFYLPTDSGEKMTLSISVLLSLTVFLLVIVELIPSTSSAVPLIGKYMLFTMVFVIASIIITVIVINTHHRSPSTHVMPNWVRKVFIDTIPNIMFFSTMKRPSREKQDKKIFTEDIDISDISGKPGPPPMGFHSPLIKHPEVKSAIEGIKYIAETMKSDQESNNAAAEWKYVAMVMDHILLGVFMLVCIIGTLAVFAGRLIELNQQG
T1 sequence (Q04844 21-493): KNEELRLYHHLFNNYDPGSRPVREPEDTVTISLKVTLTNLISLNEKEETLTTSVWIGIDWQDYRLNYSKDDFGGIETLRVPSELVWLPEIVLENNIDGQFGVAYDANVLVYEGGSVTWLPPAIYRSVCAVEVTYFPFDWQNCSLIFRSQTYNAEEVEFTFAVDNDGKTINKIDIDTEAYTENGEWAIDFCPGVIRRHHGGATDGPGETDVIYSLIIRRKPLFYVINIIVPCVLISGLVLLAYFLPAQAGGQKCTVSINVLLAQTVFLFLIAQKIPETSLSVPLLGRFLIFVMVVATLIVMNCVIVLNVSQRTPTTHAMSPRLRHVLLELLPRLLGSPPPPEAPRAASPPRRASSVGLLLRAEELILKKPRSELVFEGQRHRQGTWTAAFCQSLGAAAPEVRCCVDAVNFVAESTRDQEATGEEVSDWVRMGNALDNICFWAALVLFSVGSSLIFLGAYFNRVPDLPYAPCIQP
T1 sequence (Q07001 22-517): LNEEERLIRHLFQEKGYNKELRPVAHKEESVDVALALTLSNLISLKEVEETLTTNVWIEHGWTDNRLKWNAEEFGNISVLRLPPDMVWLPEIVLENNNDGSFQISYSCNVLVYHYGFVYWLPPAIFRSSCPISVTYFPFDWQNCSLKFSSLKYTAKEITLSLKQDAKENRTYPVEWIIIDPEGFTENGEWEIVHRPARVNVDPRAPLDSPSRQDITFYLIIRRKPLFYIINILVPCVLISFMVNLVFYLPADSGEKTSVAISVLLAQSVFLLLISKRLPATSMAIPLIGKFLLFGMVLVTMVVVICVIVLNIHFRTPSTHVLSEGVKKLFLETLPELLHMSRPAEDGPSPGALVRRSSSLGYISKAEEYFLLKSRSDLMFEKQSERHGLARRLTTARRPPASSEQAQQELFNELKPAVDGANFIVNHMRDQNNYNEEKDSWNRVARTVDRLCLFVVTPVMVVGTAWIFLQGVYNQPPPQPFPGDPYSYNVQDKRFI
T1 sequence (P11230 24-501 partner): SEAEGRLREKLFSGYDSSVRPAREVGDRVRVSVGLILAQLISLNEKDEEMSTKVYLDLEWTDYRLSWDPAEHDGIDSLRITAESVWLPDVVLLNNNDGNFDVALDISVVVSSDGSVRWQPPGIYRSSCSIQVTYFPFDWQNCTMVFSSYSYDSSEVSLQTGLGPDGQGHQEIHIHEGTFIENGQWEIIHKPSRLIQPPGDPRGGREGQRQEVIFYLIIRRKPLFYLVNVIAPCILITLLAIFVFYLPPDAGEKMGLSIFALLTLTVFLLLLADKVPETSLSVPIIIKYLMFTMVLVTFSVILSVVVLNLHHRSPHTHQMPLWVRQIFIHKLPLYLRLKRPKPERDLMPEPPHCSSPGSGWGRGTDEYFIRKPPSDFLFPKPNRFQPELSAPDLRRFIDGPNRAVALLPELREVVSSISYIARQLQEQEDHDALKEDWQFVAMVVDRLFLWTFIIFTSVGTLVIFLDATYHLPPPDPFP

Row | Structure (SMILES) | IC50 [1] [nM] | IC50 [2] [nM]
1 | COc1cc2c3cc1Oc1cc(ccc1O)C[C@@H]1c4c(cc(OC)c(O)c4Oc4ccc(cc4)C[C@@H]3N(C)CC2)CC[N+]1(C)C [(+)-tubocurarine] | 24 ± 2 | –
2 | COc1ccc(CC2c3cc(OC)c(OC)cc3CC[N+]2(C)CCC(=O)OCCCCCOC(=O)CC[N+]2(C)CCc3cc(OC)c(OC)cc3C2Cc2ccc(OC)c(OC)c2)cc1OC (stereo not shown) [atracurium] | – | 17 ± 2
3 | COc1ccc(C[C@@H]2c3cc(OC)c(OC)cc3CC[N@+]2(C)CCC(=O)OCCCCCOC(=O)CC[N@@+]2(C)CCc3cc(OC)c(OC)cc3[C@H]2Cc2ccc(OC)c(OC)c2)cc1OC [cisatracurium] | 10 ± 1 | –
4 | COc1ccc2cc1Oc1cc3c(cc1OC)CC[N+](C)(C)[C@H]3Cc1ccc(cc1)Oc1c(OC)c(OC)cc3c1[C@@H](C2)[N+](C)(C)CC3 [metocurine] | – | 18 ± 2
5 | CC(=O)O[C@H]1C[C@@H]2CC[C@@H]3[C@H](CC[C@@]4(C)[C@H]3C[C@H]([N+]3(C)CCCCC3)[C@@H]4OC(C)=O)[C@@]2(C)C[C@@H]1[N+]1(C)CCCCC1 [pancuronium] | 6.3 ± 0.8 | –
6 | C=CC[N+]1([C@H]2C[C@H]3[C@@H]4CC[C@H]5C[C@H](O)[C@@H](N6CCOCC6)C[C@]5(C)[C@H]4CC[C@]3(C)[C@H]2OC(C)=O)CCCC1 [rocuronium] | – | 17 ± 2
7 | CC(=O)O[C@H]1C[C@@H]2CC[C@@H]3[C@H](CC[C@@]4(C)[C@H]3C[C@H]([N+]3(C)CCCCC3)[C@@H]4OC(C)=O)[C@@]2(C)C[C@@H]1N1CCCCC1 [vecuronium] | – | 15 ± 2
